{
  "source": "patent US20100247617A1",
  "about": "“Transdermal Administration Of (2S)-(4E)-N-Methyl-5-(3-(5-Isopropoxypyridin)yl)-4-Penten-2-Amine” (TARGACEPT, INC., priority 2007, published 2010)",
  "key": {"[1]": {"assay": "In vitro skin penetration study using pig-ear (Bronaugh diffusion cells)", "format": "in vitro ADME", "details": "receiver PBS pH 7.4, 32° C.; for Cumulative penetrated amount: 24-hour period, pig-ear skin; for Steady state flux: pig-ear skin approx. 900 μm, average ± SD", "experimental": "Bronaugh diffusion cells were used for in vitro penetration studies, which were carried out to determine the flux (i.e. the speed by which the compound penetrates skin) and total cumulated amount penetrated of ^14C-active ingredient. The compound was dissolved in water at two concentrations, 35 and 135 mg/g. Pig-ear full-thickness skin (dermatomed to approx. 900 μm thick) was used as the membrane. The receiver compartment contained phosphate buffered saline (pH 7.4) and the temperature was maintained at 32° C. The compound solutions were applied onto the stratum corneum. Receiver compartment samples (2, 4, 8 12 and 14 h) were assayed by liquid scintillation counting. The transdermal flux (μg/cm^2/h) can be determined from the steady-state slope of the plot of the cumulative amount of active ingredient permeating through the skin versus time. After steady-state was established, the linear portion of the plot was used to calculate the flux from the slope.\nThe cumulative penetrated amounts and derived steady state fluxes for both tested concentrations during a 24-hour period are presented in FIG. 1 and TABLE 1."}, "[2]": {"assay": "Maximal solubility in water", "format": "physicochemical"}, "[3]": {"details": "test concentration 35 mg/g water"}, "[4]": {"details": "test concentration 135 mg/g water"}},
  "data": [
    {"smiles": "CN[C@@H](C)C/C=C/c1cncc(OC(C)C)c1", "note": "[active ingredient, (2S)-(4E)-N-methyl-5-(3-(5-isopropoxypyridin)yl)-4-penten-2-amine]", "values": [
      {"measurement": "Cumulative penetrated amount", "setting": "[1]; [3]", "result": "27 ± 36", "unit": "μg/cm^2"},
      {"measurement": "Steady state flux", "setting": "[1]; [3]", "result": "2.6 ± 3.6", "unit": "μg/cm^2/h"},
      {"measurement": "Cumulative penetrated amount", "setting": "[1]; [4]", "result": "55 ± 88", "unit": "μg/cm^2"},
      {"measurement": "Steady state flux", "setting": "[1]; [4]", "result": "5.1 ± 9.0", "unit": "μg/cm^2/h"},
      {"measurement": "maximal solubility in water", "setting": "[2]", "result": 200, "unit": "mg/g"}
    ]}
  ]
}
